In US12275731B2, “Azaindole inhibitors of wild-type and mutant forms of LRRK2” (DANA-FARBER CANCER INSTITUTE, INC., priority 2018, dated 2025) one finds remaining binding data, which are given here for three compounds.

Test in all cases: KinomeScan profiling
Common to all, as to assay type: binding

Test [1] concerns the target T1, FLT3(D835V) (Homo sapiens, UniProt P36888, D835V).
T1 sequence (P36888 27-993 D835V): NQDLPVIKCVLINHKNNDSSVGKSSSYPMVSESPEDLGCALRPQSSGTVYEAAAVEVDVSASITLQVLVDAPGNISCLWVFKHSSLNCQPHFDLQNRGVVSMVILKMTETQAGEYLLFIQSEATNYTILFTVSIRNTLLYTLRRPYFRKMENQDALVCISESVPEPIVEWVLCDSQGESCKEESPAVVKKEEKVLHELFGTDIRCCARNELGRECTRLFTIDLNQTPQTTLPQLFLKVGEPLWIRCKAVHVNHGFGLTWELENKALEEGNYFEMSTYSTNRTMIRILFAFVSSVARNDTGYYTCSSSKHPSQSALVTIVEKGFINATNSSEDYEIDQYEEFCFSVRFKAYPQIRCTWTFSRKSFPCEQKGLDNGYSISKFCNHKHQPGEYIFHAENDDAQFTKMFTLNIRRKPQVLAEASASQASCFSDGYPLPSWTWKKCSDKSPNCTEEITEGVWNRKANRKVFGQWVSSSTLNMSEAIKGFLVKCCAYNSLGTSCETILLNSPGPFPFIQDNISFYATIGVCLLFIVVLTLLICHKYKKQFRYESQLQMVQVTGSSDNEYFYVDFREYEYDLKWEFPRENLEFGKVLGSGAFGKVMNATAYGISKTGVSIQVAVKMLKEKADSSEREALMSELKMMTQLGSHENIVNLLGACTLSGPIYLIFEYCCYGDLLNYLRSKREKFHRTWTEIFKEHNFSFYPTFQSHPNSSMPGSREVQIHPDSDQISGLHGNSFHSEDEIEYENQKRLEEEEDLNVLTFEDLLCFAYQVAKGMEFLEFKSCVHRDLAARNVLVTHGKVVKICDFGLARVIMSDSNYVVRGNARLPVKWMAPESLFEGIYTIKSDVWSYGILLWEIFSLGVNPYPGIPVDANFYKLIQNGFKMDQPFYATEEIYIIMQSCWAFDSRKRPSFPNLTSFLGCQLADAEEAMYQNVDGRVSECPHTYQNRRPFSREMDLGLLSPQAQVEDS
To be noted: read-out: % control. Put shortly:
(§1)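 Compounds were screened at 1 μM in DMSO across a 468-kinase KinomeScan panel. Binding was expressed as % control, scaled between a positive control (0%) and DMSO (100%) using luminescence signal. A value under 35% counted as active.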

The target of test [2] is MYLK2 (Homo sapiens, UniProt Q9H1R3). To be noted: MYLK2, 1 μM; read-out: % control. Put shortly:
as §1

Test [3] addresses ERK2 (Homo sapiens, UniProt P28482). The following applies: ERK2, 1 μM; read-out: % control. A digest of the protocol: as §1
The target in test [4] is CDKL3 (Homo sapiens, UniProt Q8IVW4). To be noted: CDKL3, 1 μM; read-out: % control. A digest of the protocol: as §1
Test [5] deals with CLK4 (Homo sapiens, UniProt Q9HAZ1). The following applies: CLK4, 1 μM; read-out: % control. Put shortly:
as §1

The target of test [6] is LTK (Homo sapiens, UniProt P29376). To be noted: read-out: % control. A digest of the protocol:
as §1

Test [7] deals with T2, INSR (Homo sapiens, UniProt P06213).
T2 construct: purchased KinomeScan®
The following applies: read-out: % control. A digest of the protocol: as §1

Test [8] has as its target CSNK1G2 (Homo sapiens, UniProt P78368). To be noted: CSNK1G2, 1 μM; read-out: % control. A digest of the protocol:
as §1

The target of test [9] is RAF1 (Homo sapiens, UniProt P04049). The following applies: RAF1, 1 μM; read-out: % control. A digest of the protocol: as §1
Test [10] addresses T3, ACVR1B (Homo sapiens, UniProt P36896).
T3 construct: purchased KinomeScan®
T3 sequence (P36896 24-505): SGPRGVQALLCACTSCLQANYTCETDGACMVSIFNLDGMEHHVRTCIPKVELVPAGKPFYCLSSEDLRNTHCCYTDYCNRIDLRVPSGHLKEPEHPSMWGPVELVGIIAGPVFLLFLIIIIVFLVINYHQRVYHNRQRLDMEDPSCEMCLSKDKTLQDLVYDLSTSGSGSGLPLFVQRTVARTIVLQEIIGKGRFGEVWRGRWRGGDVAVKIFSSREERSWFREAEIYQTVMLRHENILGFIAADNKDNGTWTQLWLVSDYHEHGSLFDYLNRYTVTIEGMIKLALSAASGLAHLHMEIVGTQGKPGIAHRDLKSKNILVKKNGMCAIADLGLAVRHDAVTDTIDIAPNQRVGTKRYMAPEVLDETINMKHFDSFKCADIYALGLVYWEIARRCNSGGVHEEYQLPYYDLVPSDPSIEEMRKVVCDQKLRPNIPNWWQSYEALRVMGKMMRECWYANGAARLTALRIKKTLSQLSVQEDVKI
To be noted: read-out: % control. Put shortly:
as §1

The target in test [11] is T4, IRAK3 (Homo sapiens, UniProt Q9Y616).
T4 construct: purchased KinomeScan®
T4 sequence (Q9Y616 1-596): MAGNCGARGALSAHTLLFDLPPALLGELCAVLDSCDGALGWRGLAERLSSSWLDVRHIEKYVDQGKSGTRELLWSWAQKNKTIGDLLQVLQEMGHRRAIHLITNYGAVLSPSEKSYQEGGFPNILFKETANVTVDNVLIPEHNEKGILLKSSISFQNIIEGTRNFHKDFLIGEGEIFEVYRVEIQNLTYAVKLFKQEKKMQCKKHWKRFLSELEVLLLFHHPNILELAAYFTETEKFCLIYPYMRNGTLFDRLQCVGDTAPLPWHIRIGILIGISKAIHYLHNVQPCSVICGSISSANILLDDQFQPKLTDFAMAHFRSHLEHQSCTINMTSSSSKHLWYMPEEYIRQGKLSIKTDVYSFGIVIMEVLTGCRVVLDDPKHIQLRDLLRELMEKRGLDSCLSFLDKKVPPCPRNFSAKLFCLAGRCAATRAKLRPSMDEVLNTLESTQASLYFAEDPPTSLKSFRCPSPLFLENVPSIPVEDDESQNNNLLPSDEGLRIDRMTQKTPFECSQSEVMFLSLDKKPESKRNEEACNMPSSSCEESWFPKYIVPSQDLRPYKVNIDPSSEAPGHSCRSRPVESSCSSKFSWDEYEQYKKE
The following applies: IRAK3, 1 μM; read-out: % control. A digest of the protocol:
as §1

Sequence of RAF1 (P04049 whole entry): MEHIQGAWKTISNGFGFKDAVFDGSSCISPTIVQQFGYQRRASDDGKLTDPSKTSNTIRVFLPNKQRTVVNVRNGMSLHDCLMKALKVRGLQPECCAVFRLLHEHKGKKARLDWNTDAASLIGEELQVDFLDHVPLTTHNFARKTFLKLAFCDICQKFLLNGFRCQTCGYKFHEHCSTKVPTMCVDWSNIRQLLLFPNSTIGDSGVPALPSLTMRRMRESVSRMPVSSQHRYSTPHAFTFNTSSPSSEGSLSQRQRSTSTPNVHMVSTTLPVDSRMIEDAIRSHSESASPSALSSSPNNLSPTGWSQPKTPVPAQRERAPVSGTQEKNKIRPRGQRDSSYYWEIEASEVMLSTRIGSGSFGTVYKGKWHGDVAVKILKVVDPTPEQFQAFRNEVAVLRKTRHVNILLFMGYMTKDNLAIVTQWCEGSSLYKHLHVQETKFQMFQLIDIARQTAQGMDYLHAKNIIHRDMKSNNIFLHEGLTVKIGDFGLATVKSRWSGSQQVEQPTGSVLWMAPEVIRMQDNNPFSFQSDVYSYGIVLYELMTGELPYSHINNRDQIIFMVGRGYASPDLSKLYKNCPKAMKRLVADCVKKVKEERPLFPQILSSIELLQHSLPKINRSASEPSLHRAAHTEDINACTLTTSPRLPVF
T2 sequence (P06213 28-1382): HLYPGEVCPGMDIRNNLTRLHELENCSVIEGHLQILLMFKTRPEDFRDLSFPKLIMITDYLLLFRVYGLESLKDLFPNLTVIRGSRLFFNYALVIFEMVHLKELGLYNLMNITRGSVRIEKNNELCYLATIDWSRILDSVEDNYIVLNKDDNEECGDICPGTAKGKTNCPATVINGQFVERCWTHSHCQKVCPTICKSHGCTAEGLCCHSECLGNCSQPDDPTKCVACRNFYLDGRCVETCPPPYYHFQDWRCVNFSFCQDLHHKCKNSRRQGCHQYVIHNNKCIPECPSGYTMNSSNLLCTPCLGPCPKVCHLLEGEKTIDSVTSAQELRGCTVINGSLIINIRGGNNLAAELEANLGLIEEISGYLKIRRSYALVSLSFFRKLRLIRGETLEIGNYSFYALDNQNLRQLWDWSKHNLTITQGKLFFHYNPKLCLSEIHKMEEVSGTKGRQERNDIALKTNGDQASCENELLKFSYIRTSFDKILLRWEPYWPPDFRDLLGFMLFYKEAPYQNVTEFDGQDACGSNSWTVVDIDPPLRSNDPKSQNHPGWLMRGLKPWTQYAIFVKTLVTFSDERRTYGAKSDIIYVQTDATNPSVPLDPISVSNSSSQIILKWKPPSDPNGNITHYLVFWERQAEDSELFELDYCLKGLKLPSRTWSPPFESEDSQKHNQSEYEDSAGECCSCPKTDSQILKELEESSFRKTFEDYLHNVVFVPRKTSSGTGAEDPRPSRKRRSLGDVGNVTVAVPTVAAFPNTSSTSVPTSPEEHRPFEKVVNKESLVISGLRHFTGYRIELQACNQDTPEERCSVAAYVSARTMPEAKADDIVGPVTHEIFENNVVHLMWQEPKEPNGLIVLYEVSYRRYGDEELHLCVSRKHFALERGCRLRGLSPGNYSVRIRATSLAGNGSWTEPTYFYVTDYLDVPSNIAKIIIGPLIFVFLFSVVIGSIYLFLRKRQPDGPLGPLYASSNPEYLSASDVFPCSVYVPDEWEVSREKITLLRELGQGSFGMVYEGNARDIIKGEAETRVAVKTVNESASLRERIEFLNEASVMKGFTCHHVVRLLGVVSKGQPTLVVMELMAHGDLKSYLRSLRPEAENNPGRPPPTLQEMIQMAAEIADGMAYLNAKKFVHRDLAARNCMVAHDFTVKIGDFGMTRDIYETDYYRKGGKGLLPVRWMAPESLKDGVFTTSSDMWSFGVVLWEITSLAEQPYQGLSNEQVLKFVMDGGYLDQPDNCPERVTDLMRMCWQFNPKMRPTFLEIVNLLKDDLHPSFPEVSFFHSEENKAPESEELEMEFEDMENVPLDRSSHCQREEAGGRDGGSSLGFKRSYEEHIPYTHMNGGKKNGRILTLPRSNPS
Sequence of ERK2 (P28482 whole entry): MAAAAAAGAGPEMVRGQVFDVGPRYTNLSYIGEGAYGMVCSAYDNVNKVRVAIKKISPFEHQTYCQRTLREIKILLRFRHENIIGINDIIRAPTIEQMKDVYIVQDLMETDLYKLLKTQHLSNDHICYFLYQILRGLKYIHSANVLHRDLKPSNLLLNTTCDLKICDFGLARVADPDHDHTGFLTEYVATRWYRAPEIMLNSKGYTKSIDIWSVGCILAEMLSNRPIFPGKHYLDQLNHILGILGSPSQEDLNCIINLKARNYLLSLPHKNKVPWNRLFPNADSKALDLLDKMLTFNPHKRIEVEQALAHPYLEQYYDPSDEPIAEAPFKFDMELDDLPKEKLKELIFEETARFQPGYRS
Sequence of CSNK1G2 (P78368 whole entry): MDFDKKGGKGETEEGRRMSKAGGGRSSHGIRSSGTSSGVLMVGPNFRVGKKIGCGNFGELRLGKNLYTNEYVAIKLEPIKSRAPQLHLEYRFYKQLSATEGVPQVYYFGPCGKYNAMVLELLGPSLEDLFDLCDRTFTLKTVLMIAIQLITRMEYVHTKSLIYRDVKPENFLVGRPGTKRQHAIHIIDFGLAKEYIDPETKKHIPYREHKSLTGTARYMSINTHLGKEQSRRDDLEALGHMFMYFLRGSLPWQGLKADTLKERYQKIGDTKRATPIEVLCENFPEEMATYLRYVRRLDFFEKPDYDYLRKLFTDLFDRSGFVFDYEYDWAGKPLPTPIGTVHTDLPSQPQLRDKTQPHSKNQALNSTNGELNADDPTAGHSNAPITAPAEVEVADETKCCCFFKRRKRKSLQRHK
Sequence of CDKL3 (Q8IVW4 whole entry): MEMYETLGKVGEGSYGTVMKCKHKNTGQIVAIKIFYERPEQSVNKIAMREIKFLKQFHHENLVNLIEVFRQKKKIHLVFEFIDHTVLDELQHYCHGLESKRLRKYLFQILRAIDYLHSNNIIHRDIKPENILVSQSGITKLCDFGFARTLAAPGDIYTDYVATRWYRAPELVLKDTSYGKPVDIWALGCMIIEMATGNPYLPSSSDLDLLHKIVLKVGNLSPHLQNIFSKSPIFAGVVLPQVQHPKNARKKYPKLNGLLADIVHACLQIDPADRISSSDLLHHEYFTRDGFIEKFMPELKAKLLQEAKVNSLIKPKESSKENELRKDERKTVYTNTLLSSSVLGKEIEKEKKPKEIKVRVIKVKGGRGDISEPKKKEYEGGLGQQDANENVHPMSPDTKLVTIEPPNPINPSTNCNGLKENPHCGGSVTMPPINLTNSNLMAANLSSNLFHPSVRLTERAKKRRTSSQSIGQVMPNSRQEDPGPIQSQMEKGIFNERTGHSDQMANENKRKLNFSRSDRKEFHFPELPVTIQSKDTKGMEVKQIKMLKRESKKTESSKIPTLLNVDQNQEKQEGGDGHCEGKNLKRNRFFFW
Sequence of CLK4 (Q9HAZ1 whole entry): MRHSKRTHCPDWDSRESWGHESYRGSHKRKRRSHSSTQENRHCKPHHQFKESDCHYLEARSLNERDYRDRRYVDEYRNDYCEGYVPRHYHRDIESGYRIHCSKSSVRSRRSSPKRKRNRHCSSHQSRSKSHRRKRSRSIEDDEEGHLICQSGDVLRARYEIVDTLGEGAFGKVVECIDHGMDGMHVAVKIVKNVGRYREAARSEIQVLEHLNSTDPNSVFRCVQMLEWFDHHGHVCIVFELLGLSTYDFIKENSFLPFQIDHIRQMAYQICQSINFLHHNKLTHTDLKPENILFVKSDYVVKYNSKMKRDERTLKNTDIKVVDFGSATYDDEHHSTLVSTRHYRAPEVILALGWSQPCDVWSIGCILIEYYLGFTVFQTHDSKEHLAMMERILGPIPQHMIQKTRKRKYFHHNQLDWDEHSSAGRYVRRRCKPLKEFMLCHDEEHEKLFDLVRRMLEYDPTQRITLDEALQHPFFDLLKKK
Sequence of MYLK2 (Q9H1R3 whole entry): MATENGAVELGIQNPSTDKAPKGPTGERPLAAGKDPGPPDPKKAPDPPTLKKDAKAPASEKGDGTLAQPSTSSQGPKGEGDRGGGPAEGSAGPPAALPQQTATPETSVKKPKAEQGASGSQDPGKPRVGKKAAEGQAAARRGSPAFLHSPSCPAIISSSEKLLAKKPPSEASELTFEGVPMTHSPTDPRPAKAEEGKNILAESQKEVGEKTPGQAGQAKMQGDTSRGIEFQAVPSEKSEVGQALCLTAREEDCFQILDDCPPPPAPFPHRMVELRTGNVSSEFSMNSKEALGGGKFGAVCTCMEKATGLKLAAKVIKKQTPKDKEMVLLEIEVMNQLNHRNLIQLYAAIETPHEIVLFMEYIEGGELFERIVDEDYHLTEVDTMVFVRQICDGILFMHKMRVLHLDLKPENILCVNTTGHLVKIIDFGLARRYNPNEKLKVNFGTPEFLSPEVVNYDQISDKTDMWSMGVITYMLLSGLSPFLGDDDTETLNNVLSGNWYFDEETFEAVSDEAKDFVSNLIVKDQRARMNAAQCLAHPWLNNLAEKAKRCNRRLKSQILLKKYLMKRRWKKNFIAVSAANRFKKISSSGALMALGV

With `CNc1c(-c2ccc(C(=O)N3CCC(N4CCOCC4)CC3)cc2)cnc2[nH]cc(Cl)c12` [Compound 96, (4-(3-chloro-4-(methylamino)-1H-pyrrolo[2,3-b]pyridin-5-yl)phenyl)(4-morpholinopiperidin-1-yl)methanone], the remaining binding at 1 µM in test [1] worked out at 2.9%; in test [2], 51%; in [3] it was 95%; in test [4], 100%; in test [5], 11%; in [6], 62%. The remaining binding at 1 µM was determined as 71% in test [7]; 93% in test [8]; 100% in test [9]; 74% in test [10]; 76% in test [11].
For the compound `O=C(c1ccc(-c2cnc3[nH]cc(Cl)c3c2NC2CCCC2)cc1)N1CCC(N2CCOCC2)CC1` [Compound 101, (4-(3-chloro-4-(cyclopentylamino)-1H-pyrrolo[2,3-b]pyridin-5-yl)phenyl)(4-morpholinopiperidin-1-yl)methanone], the remaining binding at 1 µM in [1] came to 6.4%; in [2], 94%; in [3], 93%; in [4], 100%; in test [5], 42%; in test [6], 72%. Further, the remaining binding at 1 µM in test [7] was determined as 68%; in test [8], 73%; in test [9], 91%; in [10] it was 98%; in [11], 37%.
`CNc1c(-c2cnn([C@H]3CCN(C(C)=O)C[C@@H]3F)c2)cnc2[nH]cc(Cl)c12` [Compound 77, 1-((3S,4S)-4-(4-(3-chloro-4-(methylamino)-1H-pyrrolo[2,3-b]pyridin-5-yl)-1H-pyrazol-1-yl)-3-fluoropiperidin-1-yl)ethan-1-one]: the remaining binding at 1 µM in test [1] was 0.5%; in [2], 79%; in test [3], 91%; in test [4], 94%; in test [5] it was 72%; in [6], 75%. Besides, the remaining binding at 1 µM in [7] came to 53%; in test [8], 81%; in test [9], 91%; in test [10], 83%; in test [11], 40%.
